Assay results reported in ChEMBL document CHEMBL1201862, “PubChem BioAssay data set” (2004).
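Exposure lasted 48 hours, with cells grown in 96-well plates and compounds tested at five concentrations. Here, GI50 denotes the concentration required for 50% inhibition of growth.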 Activity calls are given as the source filed them. Rule as the data show it: active = GI50 up to about 1.1 µM and inactive = higher.

What was measured:
Assay in all cases: NCI tumour cell line growth inhibition, 48 h
786-0 = tested on: 786-0
A498 = tested on: A498
A549 = tested on: A549
ACHN = tested on: ACHN
CAKI-1 = tested on: CAKI-1
CCRF-CEM = tested on: CCRF-CEM
COLO 205 = tested on: COLO 205
DLD-1 = tested on: DLD-1
DMS-114 = tested on: DMS-114
DMS-273 = tested on: DMS-273
EKVX = tested on: EKVX
HCT-116 = tested on: HCT-116
HCT-15 = tested on: HCT-15
HL-60 = tested on: HL-60
HOP-18 = tested on: HOP-18
HOP-62 = tested on: HOP-62
HOP-92 = tested on: HOP-92
HT-29 = tested on: HT-29
IGROV-1 = tested on: IGROV-1
K562 = tested on: K562
KM-20L2 = tested on: KM-20L2
KM12 = tested on: KM12
LOX IMVI = tested on: LOX IMVI
LXFL 529 = tested on: LXFL 529
M14 = tested on: M14
MOLT-4 = tested on: MOLT-4
Malme-3M = tested on: Malme-3M
NCI-H226 = tested on: NCI-H226
NCI-H23 = tested on: NCI-H23
NCI-H460 = tested on: NCI-H460
NCI-H522 = tested on: NCI-H522
OVCAR-3 = tested on: OVCAR-3
OVCAR-4 = tested on: OVCAR-4
OVCAR-5 = tested on: OVCAR-5
OVCAR-8 = tested on: OVCAR-8
RPMI-8226 = tested on: RPMI-8226
RXF 393 = tested on: RXF 393
RXF 631 = tested on: RXF 631
SF-268 = tested on: SF-268
SF-295 = tested on: SF-295
SF-539 = tested on: SF-539
SK-MEL-28 = tested on: SK-MEL-28
SK-MEL-2 = tested on: SK-MEL-2
SK-MEL-5 = tested on: SK-MEL-5
SK-OV-3 = tested on: SK-OV-3
SN12C = tested on: SN12C
SNB-19 = tested on: SNB-19
SNB-75 = tested on: SNB-75
SNB-78 = tested on: SNB-78
SW-620 = tested on: SW-620
TK-10 = tested on: TK-10
U-251 = tested on: U-251
UACC-62 = tested on: UACC-62
HCC 2998 = tested on: HCC 2998
M19-MEL = tested on: M19-MEL
UACC-257 = tested on: UACC-257
UO-31 = tested on: UO-31
XF498 = tested on: XF498
SR = tested on: SR

In the case of `O=C1c2ccccc2C2(O)Nc3cc(O)ccc3C12O` (configuration not stated), the GI50 (786-0) is reported as > 100 µM (inactive), the GI50 (A498) is reported as > 100 µM (inactive) and the GI50 (A549) is reported as > 100 µM (inactive). For the same molecule, the GI50 (ACHN) was > 100 µM (inactive), the GI50 (CAKI-1) was > 100 µM (inactive) and the GI50 (CCRF-CEM) was > 100 µM (inactive). For the same molecule, the GI50 (COLO 205) was > 100 µM (inactive), the GI50 (DLD-1) was > 100 µM (inactive) and the GI50 (DMS-114) was > 100 µM (inactive). The GI50 (DMS-273) was > 100 µM (inactive), the GI50 (EKVX) was > 100 µM (inactive) and the GI50 (HCT-116) was > 100 µM (inactive). For the same molecule, the GI50 (HCT-15) was over 100 µM, the GI50 (HL-60) was > 100 µM (inactive) and the GI50 (HOP-18) was > 100 µM (inactive). For the same molecule, the GI50 (HOP-62) was > 100 µM (inactive), the GI50 (HOP-92) was > 100 µM (inactive) and the GI50 (HT-29) was > 100 µM (inactive). The GI50 (IGROV-1) was > 100 µM (inactive), the GI50 (K562) was > 100 µM (inactive) and the GI50 (KM-20L2) was > 100 µM (inactive). For the same molecule, the GI50 (KM12) was > 100 µM (inactive), the GI50 (LOX IMVI) was > 100 µM (inactive) and the GI50 (LXFL 529) was > 100 µM (inactive). The GI50 (M14) was > 100 µM (inactive), the GI50 (MOLT-4) was > 100 µM (inactive) and the GI50 (Malme-3M) was > 100 µM (inactive). The GI50 (NCI-H226) was > 100 µM (inactive), the GI50 (NCI-H23) was > 100 µM (inactive) and the GI50 (NCI-H460) was > 100 µM (inactive). The GI50 (NCI-H522) was > 100 µM (inactive), the GI50 (OVCAR-3) was > 100 µM (inactive) and the GI50 (OVCAR-4) was > 100 µM (inactive). For the same molecule, the GI50 (OVCAR-5) was > 100 µM (inactive), the GI50 (OVCAR-8) was > 100 µM (inactive) and the GI50 (RPMI-8226) was > 100 µM (inactive). The GI50 (RXF 393) was > 100 µM (inactive), the GI50 (RXF 631) was > 100 µM (inactive) and the GI50 (SF-268) was > 100 µM (inactive). The GI50 (SF-295) was > 100 µM (inactive), the GI50 (SF-539) was > 100 µM (inactive) and the GI50 (SK-MEL-28) was > 100 µM (inactive). The GI50 (SK-MEL-2) was > 100 µM (inactive), the GI50 (SK-MEL-5) was > 100 µM (inactive) and the GI50 (SK-OV-3) was > 100 µM (inactive). For the same molecule, the GI50 (SN12C) was > 100 µM (inactive), the GI50 (SNB-19) was > 100 µM (inactive) and the GI50 (SNB-75) was > 100 µM (inactive). For the same molecule, the GI50 (SNB-78) was > 100 µM (inactive), the GI50 (SW-620) was > 100 µM (inactive) and the GI50 (TK-10) was > 100 µM (inactive). The GI50 (U-251) was > 100 µM (inactive) and the GI50 (UACC-62) was > 100 µM (inactive).
`CCCCN(CCCC)CCCCNc1c(C)cnc2cc(Cl)ccc12` was tested, and the GI50 (786-0) was 14 µM (inactive), the GI50 (A498) was 23.6 µM (inactive) and the GI50 (A549) was 30.9 µM (inactive). The GI50 (ACHN) was 24.3 µM (inactive), the GI50 (CCRF-CEM) was 49.1 µM (inactive) and the GI50 (COLO 205) was 23.3 µM (inactive). For the same molecule, the GI50 (DMS-114) was 15.9 µM (inactive), the GI50 (EKVX) was 20 µM (inactive) and the GI50 (HCC 2998) was 14.5 µM (inactive). The GI50 (HCT-116) was 11.1 µM (inactive), the GI50 (HCT-15) was 29.9 µM and the GI50 (HOP-18) was 23 µM (inactive). The GI50 (HOP-62) was 21.3 µM (inactive), the GI50 (HOP-92) was 13.5 µM (inactive) and the GI50 (HT-29) was 14.9 µM (inactive). The GI50 (K562) was 10.3 µM (inactive), the GI50 (KM-20L2) was 11.3 µM (inactive) and the GI50 (KM12) was 36.6 µM (inactive). The GI50 (LOX IMVI) was 14.2 µM (inactive), the GI50 (LXFL 529) was 31 µM (inactive) and the GI50 (M14) was 1.94 µM (inactive). For the same molecule, the GI50 (M19-MEL) was 32.5 µM (inactive), the GI50 (MOLT-4) was 25.9 µM (inactive) and the GI50 (Malme-3M) was 21 µM (inactive). The GI50 (NCI-H226) was 16.4 µM (inactive), the GI50 (NCI-H23) was 38.7 µM (inactive) and the GI50 (NCI-H460) was 30.9 µM (inactive). The GI50 (NCI-H522) was 15.2 µM (inactive), the GI50 (OVCAR-3) was 30.2 µM (inactive) and the GI50 (OVCAR-4) was 49.2 µM (inactive). For the same molecule, the GI50 (OVCAR-5) was 2.79 µM (inactive), the GI50 (OVCAR-8) was 49.4 µM (inactive) and the GI50 (RXF 393) was 13.3 µM (inactive). The GI50 (RXF 631) was 13.7 µM (inactive), the GI50 (SF-268) was 21.6 µM (inactive) and the GI50 (SF-295) was 19.1 µM (inactive). For the same molecule, the GI50 (SF-539) was 13.4 µM (inactive), the GI50 (SK-MEL-28) was 17.2 µM (inactive) and the GI50 (SK-MEL-2) was 21.2 µM (inactive). The GI50 (SN12C) was 30.6 µM (inactive), the GI50 (SNB-19) was 52.5 µM (inactive) and the GI50 (SNB-78) was 55.3 µM (inactive). For the same molecule, the GI50 (SW-620) was 20.9 µM (inactive), the GI50 (TK-10) was 34.4 µM (inactive) and the GI50 (U-251) was 28.6 µM (inactive). The GI50 (UACC-257) was 14.6 µM (inactive), the GI50 (UO-31) was 9.35 µM (inactive) and the GI50 (XF498) was 14.4 µM (inactive).
In the case of `CC(=O)OCc1cc(OC(C)=O)cnc1COC(C)=O`, the GI50 (786-0) is reported as > 100 µM (inactive), the GI50 (A498) is reported as > 100 µM (inactive) and the GI50 (A549) is reported as > 100 µM (inactive). For the same molecule, the GI50 (ACHN) was > 100 µM (inactive), the GI50 (CAKI-1) was > 100 µM (inactive) and the GI50 (CCRF-CEM) was > 100 µM (inactive). For the same molecule, the GI50 (COLO 205) was > 100 µM (inactive), the GI50 (DLD-1) was > 100 µM (inactive) and the GI50 (DMS-114) was > 100 µM (inactive). The GI50 (DMS-273) was > 100 µM (inactive), the GI50 (EKVX) was > 100 µM (inactive) and the GI50 (HCT-116) was > 100 µM (inactive). For the same molecule, the GI50 (HCT-15) was over 100 µM, the GI50 (HL-60) was > 100 µM (inactive) and the GI50 (HOP-18) was > 100 µM (inactive). For the same molecule, the GI50 (HOP-62) was > 100 µM (inactive), the GI50 (HOP-92) was > 100 µM (inactive) and the GI50 (HT-29) was > 100 µM (inactive). For the same molecule, the GI50 (IGROV-1) was > 100 µM (inactive), the GI50 (K562) was > 100 µM (inactive) and the GI50 (KM-20L2) was > 100 µM (inactive). The GI50 (KM12) was > 100 µM (inactive), the GI50 (LOX IMVI) was > 100 µM (inactive) and the GI50 (LXFL 529) was > 100 µM (inactive). For the same molecule, the GI50 (M14) was > 100 µM (inactive), the GI50 (M19-MEL) was > 100 µM (inactive) and the GI50 (MOLT-4) was > 100 µM (inactive). The GI50 (Malme-3M) was > 100 µM (inactive), the GI50 (NCI-H226) was > 100 µM (inactive) and the GI50 (NCI-H23) was > 100 µM (inactive). For the same molecule, the GI50 (NCI-H460) was > 100 µM (inactive), the GI50 (NCI-H522) was > 100 µM (inactive) and the GI50 (OVCAR-3) was > 100 µM (inactive). For the same molecule, the GI50 (OVCAR-4) was > 100 µM (inactive), the GI50 (OVCAR-5) was > 100 µM (inactive) and the GI50 (OVCAR-8) was > 100 µM (inactive). The GI50 (RXF 393) was > 100 µM (inactive), the GI50 (RXF 631) was > 100 µM (inactive) and the GI50 (SF-268) was > 100 µM (inactive). The GI50 (SF-295) was > 100 µM (inactive), the GI50 (SF-539) was > 100 µM (inactive) and the GI50 (SK-MEL-28) was > 100 µM (inactive). The GI50 (SK-MEL-2) was > 100 µM (inactive), the GI50 (SK-MEL-5) was > 100 µM (inactive) and the GI50 (SK-OV-3) was > 100 µM (inactive). The GI50 (SN12C) was > 100 µM (inactive), the GI50 (SNB-19) was > 100 µM (inactive) and the GI50 (SNB-75) was > 100 µM (inactive). The GI50 (SR) was > 100 µM (inactive), the GI50 (SW-620) was > 100 µM (inactive) and the GI50 (TK-10) was > 100 µM (inactive). The GI50 (U-251) was > 100 µM (inactive), the GI50 (UACC-257) was > 100 µM (inactive) and the GI50 (UACC-62) was > 100 µM (inactive). The GI50 (UO-31) was > 100 µM (inactive) and the GI50 (XF498) was > 100 µM (inactive).
